Results published in ChEMBL document CHEMBL4385604, “Identification of Pyrrolo[2,3- d]pyrimidine-Based Derivatives as Potent and Orally Effective Fms-like Tyrosine Receptor Kinase 3 (FLT3) Inhibitors for Treating Acute Myelogenous Leukemia” (J Med Chem, 2019).

Assays:
[1] = tested on: MOLM-13; assay: cells; settings: Homo sapiens, MOLM-13, 72 h
Description: Antiproliferative activity against human MOLM13 cells harboring FLT3-ITD mutant measured after 72 hrs by MTT assay

[2] = tested on: HL-60; assay: Antiproliferative activity against human HL60 cells harboring wild-type FLT3 measured after 72 hrs by MTT assay; format: functional, cell-based; settings: HL-60, 72 h
[3] = tested on: BaF3; assay: cells; settings: Mus musculus, BaF3, 72 h
Description: Antiproliferative activity against mouse BAF3 cells harboring FLT3-ITD-D835V mutant measured after 72 hrs by MTT assay

[4] = tested on: BaF3; assay: cells; settings: Mus musculus, BaF3, 72 h; remark: listed apart in the source
Description: Antiproliferative activity against mouse BAF3 cells harboring FLT3-ITD mutant measured after 72 hrs by MTT assay

[5] = tested on: BaF3; assay: cells; settings: Mus musculus, BaF3, 72 h; remark: listed apart in the source
Description: Antiproliferative activity against mouse BAF3 cells harboring FLT3-ITD-F691L mutant measured after 72 hrs by MTT assay

[6] = tested on: RS4-11; assay: Antiproliferative activity against human RS4:11 cells harboring wild-type FLT3 measured after 72 hrs by MTT assay; format: functional, cell-based; settings: RS4-11, 72 h
[7] = target: T1, Receptor-type tyrosine-protein kinase FLT3 (Homo sapiens, UniProt P36888)
T1 sequence (P36888 whole entry): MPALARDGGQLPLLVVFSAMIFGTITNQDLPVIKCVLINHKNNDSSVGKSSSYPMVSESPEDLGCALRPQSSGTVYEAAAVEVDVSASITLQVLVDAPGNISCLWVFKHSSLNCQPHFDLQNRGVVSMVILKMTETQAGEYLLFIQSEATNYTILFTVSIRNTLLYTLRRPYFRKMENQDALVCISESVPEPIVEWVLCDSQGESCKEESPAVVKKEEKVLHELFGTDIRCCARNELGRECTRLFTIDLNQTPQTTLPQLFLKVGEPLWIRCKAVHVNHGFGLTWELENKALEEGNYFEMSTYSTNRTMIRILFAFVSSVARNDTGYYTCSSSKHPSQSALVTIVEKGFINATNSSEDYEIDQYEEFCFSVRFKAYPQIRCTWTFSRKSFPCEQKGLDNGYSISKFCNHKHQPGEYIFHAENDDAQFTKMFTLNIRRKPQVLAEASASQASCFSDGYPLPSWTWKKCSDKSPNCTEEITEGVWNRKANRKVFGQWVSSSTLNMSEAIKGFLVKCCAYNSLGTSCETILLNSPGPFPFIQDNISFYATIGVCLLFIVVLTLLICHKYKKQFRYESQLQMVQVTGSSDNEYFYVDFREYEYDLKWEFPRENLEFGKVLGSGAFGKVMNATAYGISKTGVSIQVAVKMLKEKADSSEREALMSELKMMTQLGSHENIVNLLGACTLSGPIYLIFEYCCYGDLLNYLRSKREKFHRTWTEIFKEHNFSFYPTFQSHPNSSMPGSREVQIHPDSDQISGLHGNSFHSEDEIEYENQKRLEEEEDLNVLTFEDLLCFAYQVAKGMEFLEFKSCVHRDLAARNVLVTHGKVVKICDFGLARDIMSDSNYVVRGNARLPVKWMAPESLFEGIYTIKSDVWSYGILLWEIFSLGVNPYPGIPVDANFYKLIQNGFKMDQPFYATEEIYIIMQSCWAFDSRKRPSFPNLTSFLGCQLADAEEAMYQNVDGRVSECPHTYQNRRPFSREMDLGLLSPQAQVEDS

[8] = tested on: MV4-11; assay: cells; settings: Homo sapiens, MV4-11, 72 h
Description: Antiproliferative activity against human MV4-11 cells harboring FLT3-ITD mutant measured after 72 hrs by MTT assay

| Structure (SMILES) | IC50 [1] | IC50 [2] | IC50 [3] | IC50 [4] | IC50 [5] | IC50 [6] | IC50 [7] | IC50 [8] |
| --- | --- | --- | --- | --- | --- | --- | --- | --- |
| Cn1cc(-c2ccc(NC(=O)Nc3cc(C(C)(C)C)on3)cc2)c2c(N)ncnc21 | 0.014 nM | > 1000 nM | 46.2 nM | 1.44 nM | 27.9 nM | > 1000 nM | 7 nM | 0.311 nM |
| C=CCCn1cc(-c2ccc(NC(=O)Nc3cc(C(C)(C)C)on3)cc2)c2c(N)ncnc21 | 1.06 nM | > 1000 nM | 176 nM | 4.92 nM | 91.8 nM | > 1000 nM | 38 nM | 1.75 nM |
| COCCn1cc(-c2ccc(NC(=O)Nc3cc(C(C)(C)C)on3)c(F)c2)c2c(N)ncnc21 | 0.58 nM | > 1000 nM | 69.7 nM | 5.57 nM | 39.4 nM | > 1000 nM | 32 nM | 1.98 nM |
| C=CCCn1cc(-c2ccc(NC(=O)Nc3cc(C(C)(C)C)on3)c(F)c2)c2c(N)ncnc21 | 1.45 nM | > 1000 nM | 84.4 nM | 5.41 nM | 50.2 nM | > 1000 nM | 51 nM | 3.22 nM |
| CCOCCn1cc(-c2ccc(NC(=O)Nc3cc(C(C)(C)C)on3)c(F)c2)c2c(N)ncnc21 | 1.55 nM | > 1000 nM | 55.4 nM | 4.6 nM | 42.7 nM | > 1000 nM | 49 nM | 1.34 nM |
| CC(C)(C)c1cc(NC(=O)Nc2ccc(-c3cn(Cc4ccccc4)c4ncnc(N)c34)cc2)no1 | 2.5 nM | > 1000 nM | 95.4 nM | 8.45 nM | 134 nM | > 1000 nM | 86 nM | 1.76 nM |
| CCn1cc(-c2ccc(NC(=O)Nc3cc(C(C)(C)C)on3)cc2)c2c(N)ncnc21 | 0.144 nM | > 1000 nM | 23.1 nM | 0.92 nM | 28.5 nM | > 1000 nM | 7 nM | 0.476 nM |
| CCCn1cc(-c2ccc(NC(=O)Nc3cc(C(C)(C)C)on3)cc2)c2c(N)ncnc21 | 0.736 nM | > 1000 nM | 41.5 nM | 2.72 nM | 72.1 nM | > 1000 nM | 15 nM | 0.403 nM |
| COCCn1cc(-c2ccc(NC(=O)Nc3cc(C(C)(C)C)on3)cc2)c2c(N)ncnc21 | 0.049 nM | > 1000 nM | 50.1 nM | 0.95 nM | 28.6 nM | > 1000 nM | 21 nM | 0.149 nM |
| CC#CCn1cc(-c2ccc(NC(=O)Nc3cc(C(C)(C)C)on3)cc2)c2c(N)ncnc21 | 1.15 nM | > 1000 nM | 86.4 nM | 6.18 nM | 51.2 nM | > 1000 nM | 26 nM | 3.92 nM |
| C#CCn1cc(-c2ccc(NC(=O)Nc3cc(C(C)(C)C)on3)c(F)c2)c2c(N)ncnc21 | 0.389 nM | > 1000 nM | 102 nM | 2.48 nM | 16.1 nM | > 1000 nM | 46 nM | 0.434 nM |
| C=C(C)Cn1cc(-c2ccc(NC(=O)Nc3cc(C(C)(C)C)on3)cc2)c2c(N)ncnc21 | 1.02 nM | > 1000 nM | 93.7 nM | 5.09 nM | 57.8 nM | > 1000 nM | 30 nM | 1.75 nM |
| CCCCCCn1cc(-c2ccc(NC(=O)Nc3cc(C(C)(C)C)on3)cc2)c2c(N)ncnc21 | 3.77 nM | > 1000 nM | 187 nM | 20.7 nM | 253 nM | > 1000 nM | 105 nM | 5.13 nM |
| CC(C)(C)OC(=O)N1CCN(CCn2cc(-c3ccc(NC(=O)Nc4cc(C(C)(C)C)on4)cc3)c3c(N)ncnc32)CC1 | 4.43 nM | > 1000 nM | 385 nM | 8.95 nM | > 500 nM | > 1000 nM |  | 2.54 nM |
